Assay results from patent publication US8642585B2, “Indanyloxydihydrobenzofuranylacetic acids” (Boehringer Ingelheim International GmbH, priority 2012, dated 2014).

Target: human GPR40 receptor (Homo sapiens, UniProt O14842)
Assay: Assay II: IP1 accumulation (IPOne HTRF) in 1321N1 cells stably expressing human GPR40
Format: cell-based
Details: 1321N1 cells expressing human GPR40, stimulation 1 h at 37° C., 5% CO2, LiCl 50 mM
Outline: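 1321N1 cells stably expressing human GPR40, seeded 24 h earlier, were stimulated with compound for 1 h at 37 °C in LiCl (50 mM) buffer, pH 7.4. IP1 measured by HTRF (665/615 ratio) after lysis and 1 h room temperature; pEC50 via IP1 reference curve and variable-slope sigmoidal fit.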

Chain of human GPR40 receptor (O14842 whole entry): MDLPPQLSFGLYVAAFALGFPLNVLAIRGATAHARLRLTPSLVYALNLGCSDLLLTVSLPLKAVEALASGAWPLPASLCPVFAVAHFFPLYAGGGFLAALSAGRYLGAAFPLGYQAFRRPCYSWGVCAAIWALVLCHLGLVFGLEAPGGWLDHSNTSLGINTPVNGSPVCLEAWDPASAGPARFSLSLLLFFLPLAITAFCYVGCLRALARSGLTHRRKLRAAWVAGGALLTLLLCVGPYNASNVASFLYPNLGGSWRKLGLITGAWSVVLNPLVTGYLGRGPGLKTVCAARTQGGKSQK

`Cc1cc(-c2cnc(C3CC3)cn2)cc(C)c1-c1ccc(F)c2c1CC[C@H]2Oc1ccc2c(c1)OC[C@H]2CC(=O)O` [Example 123, {(S)-6-[(R)-4-(2,6-Dimethyl-4-(5-cyclopropyl-pyrazin-2-yl)-phenyl)-7-fluoro-indan-1-yloxy]-2,3-dihydro-benzofuran-3-yl}-acetic acid] gave an EC50 of 7 nM.

`Cc1cc(-c2cnn(CC(C)(C)O)c2)cc(C)c1-c1ccc(F)c2c1CC[C@H]2Oc1ccc2c(c1)OC[C@H]2CC(=O)O` [Example 83, 2-((S)-6-((R)-7-Fluoro-4-(4-(1-(2-hydroxy-2-methylpropyl)-1H-pyrazol-4-yl)-2,6-dimethylphenyl)-2,3-dihydro-1H-inden-1-yloxy)-2,3-dihydrobenzofuran-3-yl)acetic acid] showed an EC50 of 6 nM.

Work on `O=C(O)C[C@@H]1COc2cc(O[C@@H]3CCc4c(-c5cccnc5N5CCCOCC5)ccc(F)c43)ccc21` [Example 127, {(S)-6-[(R)-7-Fluoro-4-(2-[1,4]oxazepan-4-yl-pyridin-3-yl)-indan-1-yloxy]-2,3-dihydro-benzofuran-3-yl}-acetic acid] yielded an EC50 of 48 nM.

Compound `Cc1cc(OC[C@@H](C)CS(C)(=O)=O)cc(C)c1-c1ccc(F)c2c1CC[C@H]2Oc1ccc2c(c1)OC[C@H]2CC(=O)O` [Example 36, ((S)-6-{(R)-7-Fluoro-4-[4-((R)-3-methanesulfonyl-2-methyl-propoxy)-2,6-dimethyl-phenyl]-indan-1-yloxy}-2,3-dihydro-benzofuran-3-yl)-acetic acid] has an EC50 of 8 nM.

`Cc1cnc(-c2cc(C)c(-c3ccc(F)c4c3CC[C@H]4Oc3ccc4c(c3)OC[C@H]4CC(=O)O)c(C)c2)nc1` [Example 113, {(S)-6-[(R)-4-(2,6-Dimethyl-4-(5-methyl-pyrimidin-2-yl)-phenyl)-7-fluoro-indan-1-yloxy]-2,3-dihydro-benzofuran-3-yl}-acetic acid] gave an EC50 of 1 nM.

Work on `Cc1cc(-c2cnc(=O)n(C)c2)cc(C)c1-c1ccc(F)c2c1CC[C@H]2Oc1ccc2c(c1)OC[C@H]2CC(=O)O` [Example 89, 2-((S)-6-((R)-4-(2,6-Dimethyl-4-(1-methyl-2-oxo-1,2-dihydropyrimidin-5-yl)phenyl)-7-fluoro-2,3-dihydro-1H-inden-1-yloxy)-2,3-dihydrobenzofuran-3-yl)acetic acid] yielded an EC50 of 9 nM.

In the case of `Cc1cc(-c2cc(C)c(-c3ccc(F)c4c3CC[C@H]4Oc3ccc4c(c3)OC[C@H]4CC(=O)O)c(C)c2)ccn1` [Example 107, {(S)-6-[(R)-4-(2,6-Dimethyl-4-(2-methyl-pyridin-4-yl)-phenyl)-7-fluoro-indan-1-yloxy]-2,3-dihydro-benzofuran-3-yl}-acetic acid], the EC50 is reported as 4 nM.

`O=C(O)C[C@@H]1COc2cc(O[C@@H]3CCc4c(-c5cccnc5N5CCOCC5)ccc(F)c43)ccc21` [Example 128, {(S)-6-[(R)-7-Fluoro-4-(2-morpholin-4-yl-pyridin-3-yl)-indan-1-yloxy]-2,3-dihydro-benzofuran-3-yl}-acetic acid] showed an EC50 of 288 nM.

In the case of `Cc1cn(C)c(-c2cc(C)c(-c3ccc(F)c4c3CC[C@H]4Oc3ccc4c(c3)OC[C@H]4CC(=O)O)c(C)c2)n1` [Example 142, {(S)-6-[(R)-4-(2,6-Dimethyl-4-(1,4-dimethyl-imidazol-2-yl)-phenyl)-7-fluoro-indan-1-yloxy]-2,3-dihydro-benzofuran-3-yl}-acetic acid], the EC50 is reported as 16 nM.

Work on `Cc1cc(-c2ccn(C)c(=O)c2)cc(C)c1-c1ccc(F)c2c1CC[C@H]2Oc1ccc2c(c1)OC[C@H]2CC(=O)O` [Example 84, 2-((S)-6-((R)-4-(2,6-Dimethyl-4-(1-methyl-2-oxo-1,2-dihydropyridin-4-yl)phenyl)-7-fluoro-2,3-dihydro-1H-inden-1-yloxy)-2,3-dihydrobenzofuran-3-yl)acetic acid] yielded an EC50 of 9 nM.

With `O=C(O)C[C@@H]1COc2cc(O[C@@H]3CCc4c(-c5cccnc5-c5ccccc5)ccc(F)c43)ccc21` [Example 106, {(S)-6-[(R)-7-Fluoro-4-(2-phenyl-pyridin-3-yl)-indan-1-yloxy]-2,3-dihydro-benzofuran-3-yl}-acetic acid] the EC50 was 59 nM.

For `Cc1cc(-c2ccc(=O)n(C)n2)cc(C)c1-c1ccc(F)c2c1CC[C@H]2Oc1ccc2c(c1)OC[C@H]2CC(=O)O` [Example 101, 2-((S)-6-((R)-4-(2,6-Dimethyl-4-(1-methyl-6-oxo-1,6-dihydropyridazin-3-yl)phenyl)-7-fluoro-2,3-dihydro-1H-inden-1-yloxy)-2,3-dihydrobenzofuran-3-yl)acetic acid], the EC50 was 3 nM.

`Cc1cc(-n2cncn2)cc(C)c1-c1ccc(F)c2c1CC[C@H]2Oc1ccc2c(c1)OC[C@H]2CC(=O)O` [Example 86, 2-((S)-6-((R)-4-(2,6-Dimethyl-4-(1H-1,2,4-triazol-1-yl)phenyl)-7-fluoro-2,3-dihydro-1H-inden-1-yloxy)-2,3-dihydrobenzofuran-3-yl)acetic acid] showed an EC50 of 8 nM.

`Cc1cc(-c2cc(=O)n(C)cn2)cc(C)c1-c1ccc(F)c2c1CC[C@H]2Oc1ccc2c(c1)OC[C@H]2CC(=O)O` [Example 88, 2-((S)-6-((R)-4-(2,6-Dimethyl-4-(1-methyl-6-oxo-1,6-dihydropyrimidin-4-yl)phenyl)-7-fluoro-2,3-dihydro-1H-inden-1-yloxy)-2,3-dihydrobenzofuran-3-yl)acetic acid] gave an EC50 of 3 nM.

For `Cc1cc(-c2noc(C(C)(C)O)n2)cc(C)c1-c1ccc(F)c2c1CC[C@H]2Oc1ccc2c(c1)OC[C@H]2CC(=O)O` [Example 136, {(S)-6-[(R)-4-(2,6-Dimethyl-4-(5-[2-hydroxy-prop-2-yl]-[1,2,4]oxadiazol-3-yl)-phenyl)-7-fluoro-indan-1-yloxy]-2,3-dihydro-benzofuran-3-yl}-acetic acid], the EC50 was 3 nM.

Compound `Cc1cc(-c2c(C)nn(C)c2C)cc(C)c1-c1ccc(F)c2c1CC[C@H]2Oc1ccc2c(c1)OC[C@H]2CC(=O)O` [Example 109, {(S)-6-[(R)-4-(2,6-Dimethyl-4-(1,3,5-trimethyl-pyrazol-4-yl)-phenyl)-7-fluoro-indan-1-yloxy]-2,3-dihydro-benzofuran-3-yl}-acetic acid] has an EC50 of 8 nM.

For `Cc1cc(-c2cnccn2)cc(C)c1-c1ccc(F)c2c1CC[C@H]2Oc1ccc2c(c1)OC[C@H]2CC(=O)O` [Example 122, {(S)-6-[(R)-4-(2,6-Dimethyl-4-pyrazin-2-yl-phenyl)-7-fluoro-indan-1-yloxy]-2,3-dihydro-benzofuran-3-yl}-acetic acid], the EC50 was 2 nM.

`Cc1cncc(-c2cc(C)c(-c3ccc(F)c4c3CC[C@H]4Oc3ccc4c(c3)OC[C@H]4CC(=O)O)c(C)c2)n1` [Example 118, {(S)-6-[(R)-4-(2,6-Dimethyl-4-(6-methyl-pyrazin-2-yl)-phenyl)-7-fluoro-indan-1-yloxy]-2,3-dihydro-benzofuran-3-yl}-acetic acid] gave an EC50 of 2 nM.

`Cc1cc(OCC2(O)CC2)cc(C)c1-c1ccc(F)c2c1CC[C@H]2Oc1ccc2c(c1)OC[C@H]2CC(=O)O` [Example 75, 2-((S)-6-((R)-7-Fluoro-4-(4-((1-hydroxycyclopropyl)methoxy)-2,6-dimethylphenyl)-2,3-dihydro-1H-inden-1-yloxy)-2,3-dihydrobenzofuran-3-yl)acetic acid] gave an EC50 of 17 nM.

`Cc1cc(O[C@@H]2CCN(S(C)(=O)=O)C2)cc(C)c1-c1ccc(F)c2c1CC[C@H]2Oc1ccc2c(c1)OC[C@H]2CC(=O)O` [Example 44, ((S)-6-{(R)-7-Fluoro-4-[4-((R)-1-methanesulfonyl-pyrrolidin-3-yloxy)-2,6-dimethyl-phenyl]-indan-1-yloxy}-2,3-dihydro-benzofuran-3-yl)-acetic acid] showed an EC50 of 17 nM.

In the case of `Cc1ccnc(-c2cc(C)c(-c3ccc(F)c4c3CC[C@H]4Oc3ccc4c(c3)OC[C@H]4CC(=O)O)c(C)c2)c1` [Example 140, {(S)-6-[(R)-4-(2,6-Dimethyl-4-(4-methyl-pyridin-2-yl)-phenyl)-7-fluoro-indan-1-yloxy]-2,3-dihydro-benzofuran-3-yl}-acetic acid], the EC50 is reported as 2 nM.

`Cc1cc(OC2CCS(=O)(=O)NC2)cc(C)c1-c1ccc(F)c2c1CC[C@H]2Oc1ccc2c(c1)OC[C@H]2CC(=O)O` (stereo partly drawn) [Example 41, ((S)-6-{(R)-4-[4-(1,1-Dioxo-1-[1,2]thiazinan-4-yloxy)-2,6-dimethyl-phenyl]-7-fluoro-indan-1-yloxy}-2,3-dihydro-benzofuran-3-yl)-acetic acid] showed an EC50 of 18 nM.

`CC(C)(C)COc1ncccc1-c1ccc(F)c2c1CC[C@H]2Oc1ccc2c(c1)OC[C@H]2CC(=O)O` [Example 100] showed an EC50 of 58 nM.

`Cc1cccc(C)c1-c1ncccc1-c1ccc(F)c2c1CC[C@H]2Oc1ccc2c(c1)OC[C@H]2CC(=O)O` [Example 124, {(S)-6-[(R)-4-(2-(2,6-Dimethyl-phenyl)-pyridin-3-yl)-7-fluoro-indan-1-yloxy]-2,3-dihydro-benzofuran-3-yl}-acetic acid] gave an EC50 of 339 nM.

Compound `Cc1cc(OC2CCS(=O)(=O)N(C)C2)cc(C)c1-c1ccc(F)c2c1CC[C@H]2Oc1ccc2c(c1)OC[C@H]2CC(=O)O` (stereo partly drawn) [Example 42, ((S)-6-{(R)-4-[2,6-Dimethyl-4-(2-methyl-1,1-dioxo-1-[1,2]thiazinan-4-yloxy)-phenyl]-7-fluoro-indan-1-yloxy}-2,3-dihydro-benzofuran-3-yl)-acetic acid] has an EC50 of 11 nM.

In the case of `Cc1cc(C)nc(-c2cc(C)c(-c3ccc(F)c4c3CC[C@H]4Oc3ccc4c(c3)OC[C@H]4CC(=O)O)c(C)c2)c1` [Example 141, {(S)-6-[(R)-4-(2,6-Dimethyl-4-(4,6-dimethyl-pyridin-2-yl)-phenyl)-7-fluoro-indan-1-yloxy]-2,3-dihydro-benzofuran-3-yl}-acetic acid], the EC50 is reported as 3 nM.
